From patent publication US10377791B2, “Therapeutically active estratrienthiazole derivatives as inhibitors of 17 B-hydroxysteroid dehydrogenase, type 1” (FORENDO PHARMA LTD, priority 2013, dated 2019)

Key:
[1] = target: T1, recombinant human 17β-HSD1 (Homo sapiens, UniProt P14061); experiment: Inhibition of recombinant human 17β-HSD1; format: biochemical; details: inhibitor at 1 μM; 30 nM estrone, 1 mM NADPH, 30 min at RT; read-out: 17β-HDS1 Inhibition % at 1 μM
T1 construct: made in house; host or cells: Sd9 (Sf9) insect cells, baculovirus (Bac to Bac Expression System)
T1 sequence (P14061 1-328): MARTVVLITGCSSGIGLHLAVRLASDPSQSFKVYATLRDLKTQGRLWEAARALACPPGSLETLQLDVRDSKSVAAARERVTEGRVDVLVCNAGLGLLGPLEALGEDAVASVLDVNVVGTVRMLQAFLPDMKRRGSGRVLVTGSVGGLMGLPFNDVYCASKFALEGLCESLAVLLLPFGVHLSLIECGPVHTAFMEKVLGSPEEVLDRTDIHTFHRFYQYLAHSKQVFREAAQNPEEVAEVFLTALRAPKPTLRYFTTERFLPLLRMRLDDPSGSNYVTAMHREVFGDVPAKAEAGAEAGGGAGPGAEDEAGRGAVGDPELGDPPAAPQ
Summary of the method: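 Microsomal enzyme from baculovirus-infected insect cells (1 μg/ml) incubated 30 min at RT in 20 mM KH2PO4 pH 7.4 with 30 nM ³H-estrone and 1 mM NADPH, inhibitor at 1 μM or 0.1 μM, 1% DMSO. TCA-stopped; estrone/estradiol separated by radio-HPLC; % inhibition = 100 − % conversion.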

[2] = target: T2, recombinant human 17β-HSD2 (Homo sapiens, UniProt P37059); experiment: Inhibition of recombinant human 17β-HSD2; format: biochemical; details: inhibitor at 1 μM; 50 nM estradiol, 1 mM NADH, 30 min at RT; read-out: 17β-HSD2 Inhibition % at 1 μM
T2 construct: made in house; host or cells: Sd9 (Sf9) insect cells, baculovirus (Bac to Bac Expression System)
T2 sequence (P37059 1-387): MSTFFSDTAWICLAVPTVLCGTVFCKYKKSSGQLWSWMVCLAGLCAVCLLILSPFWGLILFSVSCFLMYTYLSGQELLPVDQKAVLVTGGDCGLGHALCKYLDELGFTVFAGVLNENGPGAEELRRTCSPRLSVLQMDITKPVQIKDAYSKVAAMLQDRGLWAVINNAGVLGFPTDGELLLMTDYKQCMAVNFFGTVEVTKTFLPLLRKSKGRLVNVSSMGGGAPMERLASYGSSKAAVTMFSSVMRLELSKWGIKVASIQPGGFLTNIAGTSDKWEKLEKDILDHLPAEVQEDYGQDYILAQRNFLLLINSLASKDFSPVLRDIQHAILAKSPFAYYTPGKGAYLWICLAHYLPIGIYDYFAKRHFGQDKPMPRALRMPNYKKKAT
Summary of the method: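 Membrane extract of baculovirus-expressed enzyme in Sf9 cells (4 μg/ml) incubated in 20 mM KH2PO4 pH 8.5 with 50 nM estradiol (³H-tracer) and 1 mM NADH, 30 min at RT, 1% DMSO, inhibitor at 1 μM or 0.1 μM. TCA-stopped; estradiol-to-estrone conversion by radio-HPLC; % inhibition = 100 − % conversion.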

SMILES	inhibition at 1 µM [1] [%]	inhibition at 1 µM [2] [%]
Cc1cnc(NC(=O)CC[C@@H]2CC(=O)[C@@]3(C)CCC4c5cc([N+](=O)[O-])c(O)cc5CCC4C23)s1 (stereo partly drawn) [Compound 34, 3-((13S,15R)-3-hydroxy-13-methyl-2-nitro-17-oxo-7,8,9,11,12,13,14,15,16,17-decahydro-6H-cyclopenta[a]phenanthren-15-yl)-N-(5-methylthiazol-2-yl)propanamide]	91	10
Cc1cnc(NC(=O)CC[C@@H]2CC(=O)[C@@]3(C)CCC4c5cc([N+](=O)[O-])c(O)c(F)c5CCC4C23)s1 (stereo partly drawn) [Compound 73, 3-((13S,15R)-4-fluoro-3-hydroxy-13-methyl-2-nitro-17-oxo-7,8,9,11,12,13,14,15,16,17-decahydro-6H-cyclopenta[a]phenanthren-15-yl)-N-(5-methylthiazol-2-yl)propanamide]	90	2
Cc1cnc(NC(=O)CC[C@@H]2CC(=O)[C@@]3(C)CCC4c5cc(I)c(O)cc5CCC4C23)s1 (stereo partly drawn) [Compound 55, 3-((13S,15R)-3-hydroxy-2-iodo-13-methyl-17-oxo-7,8,9,11,12,13,14,15,16,17-decahydro-6H-cyclopenta[a]phenanthren-15-yl)-N-(5-methylthiazol-2-yl)propanamide]	98	7
COc1ccc2c(c1)CCC1C2CC[C@]2(C)C(=O)C[C@@H](CCC(=O)Nc3ncc(C)s3)C12 (stereo partly drawn) [Compound X, 3-((13S,15R)-3-Methoxy-13-methyl-17-oxo-7,8,9,11,12,13,14,15,16,17-decahydro-6H-cyclopenta[a]phenanthren-15-yl)-N-(5-methylthiazol-2-yl)propanamide, reference compound]	96	3
Cc1cnc(NC(=O)CC[C@@H]2CC(=O)[C@@]3(C)CCC4c5cc(C#N)c(O)cc5CCC4C23)s1 (stereo partly drawn) [Compound 91, 3-((13S,15R)-2-cyano-3-hydroxy-13-methyl-17-oxo-7,8,9,11,12,13,14,15,16,17-decahydro-6H-cyclopenta[a]phenanthren-15-yl)-N-(5-methylthiazol-2-yl)propanamide]	97	1
Cc1cnc(NC(=O)CC[C@@H]2CC(=O)[C@@]3(C)CCC4c5ccc(O)c(Cl)c5CCC4C23)s1 (stereo partly drawn) [Compound 63, 3-((13S,15R)-4-chloro-3-hydroxy-13-methyl-17-oxo-7,8,9,11,12,13,14,15,16,17-decahydro-6H-cyclopenta[a]phenanthren-15-yl)-N-(5-methylthiazol-2-yl)propanamide]	99	21
Cc1cnc(NC(=O)CC[C@@H]2CC(=O)[C@@]3(C)CCC4c5cc(CN(C)C)c(O)cc5CCC4C23)s1 (stereo partly drawn) [Compound 44, 3-((13S,15R)-2-((dimethylamino)methyl)-3-hydroxy-13-methyl-17-oxo-7,8,9,11,12,13,14,15,16,17-decahydro-6H-cyclopenta[a]phenanthren-15-yl)-N-(5-methylthiazol-2-yl)propanamide]	91	2
Cc1nc2c3c(ccc2o1)C1CC[C@]2(C)C(=O)C[C@@H](CCC(=O)Nc4ncc(C)s4)C2C1CC3 (stereo partly drawn) [Compound 49, 3-((7aS,10R)-2,7a-dimethyl-8-oxo-6,7,7a,8,9,10,10a,10b,11,12-decahydro-5bH-cyclopenta[7,8]phenanthro[1,2-d]oxazol-10-yl)-N-(5-methylthiazol-2-yl)propanamide]	84	1
Cc1cnc(NC(=O)CC[C@@H]2CC(=O)[C@@]3(C)CCC4c5cc(Br)c(O)c(F)c5CCC4C23)s1 (stereo partly drawn) [Compound 71, 3-((13S,15R)-2-bromo-4-fluoro-3-hydroxy-13-methyl-17-oxo-7,8,9,11,12,13,14,15,16,17-decahydro-6H-cyclopenta[a]phenanthren-15-yl)-N-(5-methylthiazol-2-yl)propanamide]	91	7
Cc1cnc(NC(=O)CC[C@@H]2CC(=O)[C@@]3(C)CCC4c5ccc(OC(=O)CNC(=O)OC(C)(C)C)cc5CCC4C23)s1 (stereo partly drawn) [Compound 15, tert-Butoxycarbonylamino-acetic acid (13S,15R)-13-methyl-15-[2-(5-methylthiazol-2-ylcarbamoyl)-ethyl]-17-oxo-7,8,9,11,12,13,14,15,16,17-decahydro-6H-cyclopenta[a]phenanthren-3-yl ester]	66	0
Cc1cnc(NC(=O)CC[C@@H]2CC(=O)[C@@]3(C)CCC4c5ccc(OC(=O)CN)cc5CCC4C23)s1 (stereo partly drawn) [Compound 16, Amino-acetic acid (13S,15R)-13-methyl-15-[2-(5-methylthiazol-2-ylcarbamoyl)-ethyl]-17-oxo-7,8,9,11,12,13,14,15,16,17-decahydro-6H-cyclopenta[a]phenanthren-3-yl ester]	93	0
Cc1cnc(NC(=O)CC[C@@H]2CC(=O)[C@@]3(C)CCC4c5ccc(O)c(N)c5CCC4C23)s1 (stereo partly drawn) [Compound 38, 3-((13S,15R)-4-amino-3-hydroxy-13-methyl-17-oxo-7,8,9,11,12,13,14,15,16,17-decahydro-6H-cyclopenta[a]phenanthren-15-yl)-N-(5-methylthiazol-2-yl)propanamide]	87	9
Cc1cnc(NC(=O)CC[C@@H]2CC(=O)[C@@]3(C)CCC4c5ccc(OS(C)(=O)=O)c(N)c5CCC4C23)s1 (stereo partly drawn) [Compound 40, (13S,15R)-4-amino-13-methyl-15-(3-((5-methylthiazol-2-yl)amino)-3-oxopropyl)-17-oxo-7,8,9,11,12,13,14,15,16,17-decahydro-6H-cyclopenta[a]phenanthren-3-yl methanesulfonate]	75	1
Cc1cnc(NC(=O)CC[C@@H]2CC(=O)[C@@]3(C)CCC4c5cc(O)ccc5CCC4C23)s1 (stereo partly drawn) [Compound 88, 3-((13S,15R)-2-hydroxy-13-methyl-17-oxo-7,8,9,11,12,13,14,15,16,17-decahydro-6H-cyclopenta[a]phenanthren-15-yl)-N-(5-methylthiazol-2-yl)propanamide]	93	1
CC(=O)Oc1cc2c(cc1F)C1CC[C@]3(C)C(=O)C[C@@H](CCC(=O)Nc4ncc(C)s4)C3C1CC2 (stereo partly drawn) [Compound 69, (13S,15R)-2-fluoro-13-methyl-15-(3-((5-methylthiazol-2-yl)amino)-3-oxopropyl)-17-oxo-7,8,9,11,12,13,14,15,16,17-decahydro-6H-cyclopenta[a]phenanthren-3-yl acetate]	57	4
Cc1cnc(NC(=O)CC[C@@H]2CC(=O)[C@@]3(C)CCC4c5ccc(O)c(Br)c5CCC4C23)s1 (stereo partly drawn) [Compound 57, 3-((13S,15R)-4-bromo-3-hydroxy-13-methyl-17-oxo-7,8,9,11,12,13,14,15,16,17-decahydro-6H-cyclopenta[a]phenanthren-15-yl)-N-(5-methylthiazol-2-yl)propanamide]	92	16
Cc1cnc(NC(=O)CC[C@@H]2CC(=O)[C@@]3(C)CCC4c5cccc([N+](=O)[O-])c5CCC4C23)s1 (stereo partly drawn) [Compound 85, 3-((13S,15R)-13-methyl-4-nitro-17-oxo-7,8,9,11,12,13,14,15,16,17-decahydro-6H-cyclopenta[a]phenanthren-15-yl)-N-(5-methylthiazol-2-yl)propanamide]	93	2
Cc1cnc(NC(=O)CC[C@@H]2CC(=O)[C@@]3(C)CCC4c5ccc6oc(=O)[nH]c6c5CCC4C23)s1 (stereo partly drawn) [Compound 51, 3-((7aS,10R)-7a-methyl-2,8-dioxo-2,5b,6,7,7a,8,9,10,10a,10b,11,12-dodecahydro-1H-cyclopenta[7,8]phenanthro[1,2-d]oxazol-10-yl)-N-(5-methylthiazol-2-yl)propanamide]	78	1
Cc1cnc(NC(=O)CC[C@@H]2CC(=O)[C@@]3(C)CCC4c5cc(CN6CCOCC6)c(O)c([N+](=O)[O-])c5CCC4C23)s1 (stereo partly drawn) [Compound 43, 3-((13S,15R)-3-hydroxy-13-methyl-2-(morpholinomethyl)-4-nitro-17-oxo-7,8,9,11,12,13,14,15,16,17-decahydro-6H-cyclopenta[a]phenanthren-15-yl)-N-(5-methylthiazol-2-yl)propanamide]	94	0
